Consider six compounds from US7550629B2, “Trifluoromethyl-containing phenylsulfonamide beta amyloid inhibitors” (Wyeth, priority 2006, dated 2009).

Molecules are shown by their SMILES.

One data set deals with beta amyloid 40. Kind of data set: Aβ40/42 ELISA Assay: Aβ40. The following applies: Cricetulus griseus; CHO cells carrying the APP-REP-NL plasmid, 22 hours, sandwich ELISA of medium. The format is cell-based. On the procedure: (§1) Pharmacology: Aβ40/42 ELISA Assay
(§2) Compounds are diluted from DMSO stocks to 2 μM and below in a cell culture medium. Compounds are then applied to CHO cells carrying the APP-REP-NL plasmid [Sudhir et. al, J. Biol. Chem. 267:25602-25608 (1992)] for a period of 22 hours. After the conditioning period, medium is collected, diluted in assay buffer containing protein, and samples, controls, and synthetic peptide standards are incubated on a prepared ELISA plate. Using a sandwich ELISA with antibodies specifically directed against the carboxyl terminus of beta amyloid 40 or 42 [analogous to the method reported by Haugabook et al., J. Neurosci. Methods 108:171-179 (2001) but using goat anti-mouse IgGl (source: Southern Biotech) as the anchor, 6E10 as the capture antibody (Source: SENETEK), rabbit antiαβ40 and antiαβB42 (source: QCB) and APL-donkey anti-rabbit IgG (H+L, source: Southern Biotech) as the detection antibody], the effect of the compound treatment on the cellular production of extracellular beta amyloid is quantified. Cells treated with compound are subsequently incubated in cell culture medium containing […]. After a short incubation period, MTS/medium containing plates are read in a spectrophotometer to determine the extent to which compound toxicity affected the cell's metabolism and ability to synthesize beta amyloid.
(§3) Test Samples: compound samples are supplied as 20 mM stock solutions in a 100% DMSO solution.
(§4) APP-REP-NL cells: Qualified cell lines are carried from week to week using 1:100 dilutions and are cultured in DMEM supplemented with 1× antibiotic/antimycotic, 200 μg/ml of G418 antibiotic, and 10% certified fetal calf serum. Cells are also banked in liquid nitrogen. Periodically, beta amyloid production is assessed, and cells are either kept in culture or replaced with progenitors at full expression.
(§5) Antibodies: Are from certified lots that have already been qualified in this assay. Antibodies are stored in small frozen aliquots at −80° C. that are thawed and used.
(§6) A compound is considered active if it has an EC50 for Aβ 40 reduction of <100 μM and no toxicity at doses in the vicinity the EC50.

A further data set has as its system beta amyloid 42. Nature of the data set: Aβ40/42 ELISA Assay: Aβ42. The format is cell-based. The settings on record: Cricetulus griseus; CHO cells carrying the APP-REP-NL plasmid, 22 hours, sandwich ELISA of medium. As for the experimental part:
as §1, §2, §3, §4, §5, §6
For orientation: An ELISA detects its analyte on a solid surface through an enzyme-linked reagent.

By EC50 is commonly meant the concentration that produces a half-maximal response. As usually defined, the melting point is the temperature of the solid-liquid transition. `O=S(=O)(N[C@H](CO)C(CC(F)(F)F)CC(F)(F)F)c1ccc(Cl)cc1` [Example 2, 4-Chloro-N-[(1S)-4,4,4-trifluoro-1-hydroxymethyl-2-(2,2,2-trifluoro-ethyl)-butyl]-benzenesulfonamide] showed a melting point of 186 to 187 °C. The same compound displayed an EC50 in the data set on beta amyloid 40 of 0.334 µM. In addition, a half-maximal response with beta amyloid 42 (EC50) required 204 nM.
As for `CC(=O)c1cccc(S(=O)(=O)NC(CO)C(C(F)(F)F)C(F)(F)F)c1` (stereo not shown) [Example 6, 3-Acetyl-N-(3,3,3-trifluoro-1-hydroxymethyl-2-trifluoromethyl-propyl)-benzenesulfonamide], the 50% effective concentration (EC50) with beta amyloid 40 turned out to be 13.4 µM; in the data set with beta amyloid 42 it was 11200 nM.
Turning to `O=S(=O)(NC(CO)C(C(F)(F)F)C(F)(F)F)c1ccccc1Cl` (stereo not shown) [Example 30, 2-chloro-N-(3,3,3-trifluoro-1-hydroxymethyl-2-trifluoromethyl-propyl)-benzenesulfonamide], the results for the EC50 in the data set on beta amyloid 40 and with beta amyloid 42 were 25.4 µM and 24500 nM, respectively.
With `C[C@@H]([C@@H](CO)NS(=O)(=O)c1ccc(Cl)c(Cl)c1)C(F)(F)F` [Example 46, 3,4-Dichloro-N-[(1S,2S)-3,3,3-trifluoro-1-(hydroxymethyl)-2-methylpropyl]benzenesulfonamide], the concentration for a half-maximal effect (EC50) with beta amyloid 40 was 5.07 µM; in the data set on beta amyloid 42 it was 4840 nM.
Taken in the same sequence, the figures for `O=S(=O)(NC(CO)C(C(F)(F)F)C(F)(F)F)c1ccc(Cl)cc1` (stereo not shown) [Example 21, 4-chloro-N-(3,3,3-trifluoro-1-hydroxymethyl-2-trifluoromethyl-propyl)-benzenesulfonamide] were 0.997 µM and 932 nM.
For the compound `O=S(=O)(NC(CO)C(CC(F)(F)F)CC(F)(F)F)c1ccc(Cl)cc1` (stereo not shown) [Example 45, 4-Chloro-N-[4,4,4-trifluoro-1-hydroxymethyl-2-(2,2,2-trifluoro-ethyl)-butyl]-benzenesulfonamide], the concentration giving a half-maximal response (EC50) in the data set with beta amyloid 40 is 0.518 µM; with beta amyloid 42 it was 504 nM.
